Measured values published in patent US6346514B1, “Pharmaceutical lysine-containing polypeptide compositions and methods of use thereof” (priority 1991, dated 2002).

System: Vibrio anguillarum (V-775)
Assay: Vaccine augmentation in Rainbow trout challenged with Vibrio anguillarum
Assay type: in vivo, Rainbow trout (Oncorhynchus mykiss)
Procedure: In the present investigation, fish were obtained and inoculated at approximately 12 weeks of age. Immunologic studies were conducted under a variety of conditions in which fish were provided with vaccination to observe vaccine augmentation, and under conditions in which no vaccine was provided prior to inoculum. The effects of exposure time, HM897 concentration, and vaccine on mortalities relative to control studies in which no HM897 was administered provided data for analysis of the immunologic effect of HM897.
The study was conducted using Rainbow trout (Oncorhynchus mykiss) to compare the effects of a standard fish vaccine to the protection provided by varying dosages of HM897. The fish were challenged with Vibrio anguillarum (V-775), a bacteria that causes fatal vibriosis, typically 3-5 days following pathogen exposure.
Rainbow Trout (Oncorhynchus mykiss) weighing approximately 5 grams were used as test organisms. The fish were obtained from Cran-Mar Trout Farm. Upon arrival at BRL's facility, the fish were quarantined for a minimum of seven days, and observed to be disease free. During this period, the fish were held at a stable temperature. There was consistent water quality in an aerated flow-through system with a flow rate of approximately 30 liters per hour. During the holding period the fish were observed daily for signs of disease, stress, injury, hemorrhaging, and external parasite. The fish were not fed 48 hours prior to testing.
The Rainbow trout used in this study weighed an average of 5 grams. The fish were divided into 21 groups with 50 fish per group. Each group of 50 fish was maintained in two 10-gallon tanks (25 fish/tank).
The level of bacterial dilution to achieve a LD75 (the level designed to kill 75% of the non-vaccinated fish) was a dilution of 10^−4. to 10^−5. The challenge bacteria were grown for 48 hours at 25° C in trypticase soy broth. The 10^−4 dilution was made from this broth in 0.9% saline. All fish excepting the control group that received no bacterial challenge were inoculated 7 days after exposure to HM897.
Rainbow trout hatchling were exposed to the concentration of HM897 as described below. Some of the fish had been vaccinated while others had received no vaccination. In each tank, fifty vaccinated or unvaccinated fish were exposed for a period of 5 minutes to HM897, and then removed and placed in an assigned tank according to the group number.
The positive control group (III) received a vaccine made from Vibrio anguillarum (V-775). This was made through a fermentation and extraction process in the BRL laboratory facility and is equivalent to the aquaculture industry standard vibrio vaccine.
All groups scheduled to be challenged with the Vibrio anguillarum bacterium were challenged at the LD75 dilution on day seven of the experiment by i.p. injection of 0.1 mL of 10^−4 bacterial dilution. The fish were observed daily for mortalities.

Thr-Ala-Glu-Glu-Lys (TAEEK) [HM897]
Cumulative Mortalities (Day 1, Group IVa: vaccinated, HM897 2.5 μg/38 liters): 0
Cumulative Mortalities (Day 1, Group IVb: vaccinated, HM897 10 μg/38 liters): 0
Cumulative Mortalities (Day 1, Group IVc: vaccinated, HM897 50 μg/38 liters): 0
Cumulative Mortalities (Day 1, Group IVd: vaccinated, HM897 100 μg/38 liters): 0
Cumulative Mortalities (Day 1, Group Va: not vaccinated, HM897 10 μg/38 liters): 0
Cumulative Mortalities (Day 1, Group Vb: not vaccinated, HM897 25 μg/38 liters): 0
Cumulative Mortalities (Day 1, Group Vc: not vaccinated, HM897 75 μg/38 liters): 0
Cumulative Mortalities (Day 1, Group Vd: not vaccinated, HM897 150 μg/38 liters): 0
Cumulative Mortalities (Day 2.10, Group IVa: vaccinated, HM897 2.5 μg/38 liters): 0
Cumulative Mortalities (Day 2.10, Group IVb: vaccinated, HM897 10 μg/38 liters): 0
Cumulative Mortalities (Day 2.10, Group IVc: vaccinated, HM897 50 μg/38 liters): 0
Cumulative Mortalities (Day 2.10, Group IVd: vaccinated, HM897 100 μg/38 liters): 0
Cumulative Mortalities (Day 2.10, Group Va: not vaccinated, HM897 10 μg/38 liters): 0
Cumulative Mortalities (Day 2.10, Group Vb: not vaccinated, HM897 25 μg/38 liters): 0
Cumulative Mortalities (Day 2.10, Group Vc: not vaccinated, HM897 75 μg/38 liters): 0
Cumulative Mortalities (Day 2.10, Group Vd: not vaccinated, HM897 150 μg/38 liters): 0
Cumulative Mortalities (Day 11, Group IVa: vaccinated, HM897 2.5 μg/38 liters): 0
Cumulative Mortalities (Day 11, Group IVb: vaccinated, HM897 10 μg/38 liters): 0
Cumulative Mortalities (Day 11, Group IVc: vaccinated, HM897 50 μg/38 liters): 0
Cumulative Mortalities (Day 11, Group IVd: vaccinated, HM897 100 μg/38 liters): 0
Cumulative Mortalities (Day 11, Group Va: not vaccinated, HM897 10 μg/38 liters): 0
Cumulative Mortalities (Day 11, Group Vb: not vaccinated, HM897 25 μg/38 liters): 0
Cumulative Mortalities (Day 11, Group Vc: not vaccinated, HM897 75 μg/38 liters): 1
Cumulative Mortalities (Day 11, Group Vd: not vaccinated, HM897 150 μg/38 liters): 0
Cumulative Mortalities (Day 12, Group IVa: vaccinated, HM897 2.5 μg/38 liters): 0
Cumulative Mortalities (Day 12, Group IVb: vaccinated, HM897 10 μg/38 liters): 0
Cumulative Mortalities (Day 12, Group IVc: vaccinated, HM897 50 μg/38 liters): 0
Cumulative Mortalities (Day 12, Group IVd: vaccinated, HM897 100 μg/38 liters): 0
Cumulative Mortalities (Day 12, Group Va: not vaccinated, HM897 10 μg/38 liters): 0
Cumulative Mortalities (Day 12, Group Vb: not vaccinated, HM897 25 μg/38 liters): 0
Cumulative Mortalities (Day 12, Group Vc: not vaccinated, HM897 75 μg/38 liters): 1
Cumulative Mortalities (Day 12, Group Vd: not vaccinated, HM897 150 μg/38 liters): 0
Cumulative Mortalities (Day 13, Group IVa: vaccinated, HM897 2.5 μg/38 liters): 1
Cumulative Mortalities (Day 13, Group IVb: vaccinated, HM897 10 μg/38 liters): 1
Cumulative Mortalities (Day 13, Group IVc: vaccinated, HM897 50 μg/38 liters): 1
Cumulative Mortalities (Day 13, Group IVd: vaccinated, HM897 100 μg/38 liters): 8
Cumulative Mortalities (Day 13, Group Va: not vaccinated, HM897 10 μg/38 liters): 16
Cumulative Mortalities (Day 13, Group Vb: not vaccinated, HM897 25 μg/38 liters): 18
Cumulative Mortalities (Day 13, Group Vc: not vaccinated, HM897 75 μg/38 liters): 21
Cumulative Mortalities (Day 13, Group Vd: not vaccinated, HM897 150 μg/38 liters): 14
Cumulative Mortalities (Day 14, Group IVa: vaccinated, HM897 2.5 μg/38 liters): 7
Cumulative Mortalities (Day 14, Group IVb: vaccinated, HM897 10 μg/38 liters): 5
Cumulative Mortalities (Day 14, Group IVc: vaccinated, HM897 50 μg/38 liters): 5
Cumulative Mortalities (Day 14, Group IVd: vaccinated, HM897 100 μg/38 liters): 15
Cumulative Mortalities (Day 14, Group Va: not vaccinated, HM897 10 μg/38 liters): 24
Cumulative Mortalities (Day 14, Group Vb: not vaccinated, HM897 25 μg/38 liters): 25
Cumulative Mortalities (Day 14, Group Vc: not vaccinated, HM897 75 μg/38 liters): 29
Cumulative Mortalities (Day 15, Group IVa: vaccinated, HM897 2.5 μg/38 liters): 10
Cumulative Mortalities (Day 15, Group IVb: vaccinated, HM897 10 μg/38 liters): 6
Cumulative Mortalities (Day 15, Group IVc: vaccinated, HM897 50 μg/38 liters): 10
Cumulative Mortalities (Day 15, Group IVd: vaccinated, HM897 100 μg/38 liters): 16
Cumulative Mortalities (Day 15, Group Va: not vaccinated, HM897 10 μg/38 liters): 28
Cumulative Mortalities (Day 15, Group Vb: not vaccinated, HM897 25 μg/38 liters): 32
Cumulative Mortalities (Day 15, Group Vc: not vaccinated, HM897 75 μg/38 liters): 32
Cumulative Mortalities (Day 16, Group IVa: vaccinated, HM897 2.5 μg/38 liters): 13
Cumulative Mortalities (Day 16, Group IVb: vaccinated, HM897 10 μg/38 liters): 6
Cumulative Mortalities (Day 16, Group IVc: vaccinated, HM897 50 μg/38 liters): 10
Cumulative Mortalities (Day 16, Group IVd: vaccinated, HM897 100 μg/38 liters): 17
Cumulative Mortalities (Day 16, Group Va: not vaccinated, HM897 10 μg/38 liters): 33
Cumulative Mortalities (Day 16, Group Vb: not vaccinated, HM897 25 μg/38 liters): 33
Cumulative Mortalities (Day 16, Group Vc: not vaccinated, HM897 75 μg/38 liters): 33
Cumulative Mortalities (Day 17, Group IVa: vaccinated, HM897 2.5 μg/38 liters): 13
Cumulative Mortalities (Day 17, Group IVb: vaccinated, HM897 10 μg/38 liters): 7
Cumulative Mortalities (Day 17, Group IVc: vaccinated, HM897 50 μg/38 liters): 10
